From US20230096766A1, “AMINO ACID HAVING FUNCTIONAL GROUP CAPABLE OF INTERMOLECULAR HYDROGEN BONDING, PEPTIDE COMPOUND CONTAINING SAME AND METHOD FOR PRODUCTION THEREOF” (Chugai Seiyaku Kabushiki Kaisha, priority 2018, published 2023) come the findings set out here.

By Papp is commonly meant a coefficient for how fast a substance crosses the barrier.

Each structure is given as a SMILES string. Where a SMILES comes first, the peptide text is derived from it. Bridges are numbered along the chain shown (N, C = ends). [ ]: non-standard residue; d: D form. The star is where a group is joined. ξ: configuration not given here. Phe(4-COOH) = N[C@@H](Cc1ccc(C(=O)O)cc1)C(=O)O; NMeF = CN[C@@H](Cc1ccccc1)C(=O)O; NMeL = CN[C@@H](CC(C)C)C(=O)O; NMeV = CN[C@H](C(=O)O)C(C)C; ξIle = CC[C@H](C)C(N)C(=O)O; NMeAbu = CC[C@H](NC)C(=O)O; ξNMeL = CNC(CC(C)C)C(=O)O; NMeA = CN[C@@H](C)C(=O)O; Piperidide = C1CCN(*)CC1; X8 = C1COC[C@@H](C*)N1; NBuGly = CCCCNCC(=O)O; N(OH)Me = CN(O)*; Sar = CNCC(=O)O; tBu = CC(C)(C)*

The series in a line: in vitro. The note with it: human, Caco-2, Caco-2 (cm/sec).
`CCCCN1CC(=O)N(C)[C@@H](CC(C)C)C(=O)N[C@H](C(=O)N2CCCCC2)CC(=O)N(C)[C@@H](C)C(=O)N[C@@H](COC[C@@H]2COCCN2)C(=O)N(C)[C@@H](CC(C)C)C(=O)N(C)[C@@H](CC)C(=O)N[C@@H](C(C)C)C(=O)N(C)[C@@H](Cc2ccccc2)C(=O)N(C)[C@@H](CC(C)C)C(=O)N[C@@H]([C@@H](C)O)C1=O` [AP243] ([NMeA]S(X8)[NMeL][NMeAbu]V[NMeF][NMeL]T[NBuGly][NMeL]D-Piperidide; lactam N-11) came in with an apparent permeability coefficient (Papp) of 0.46 ×10⁻⁶ cm/s.
Under `CCCCN1CC(=O)N(C)[C@@H](Cc2ccccc2)C(=O)N(C)[C@@H](CC(C)C)C(=O)N[C@@H](C(C)C)C(=O)N(C)[C@@H](CC(C)C)C(=O)N[C@H](C(=O)N2CCCCC2)CC(=O)N(C)CC(=O)N(C)[C@@H](CC(C)C)C(=O)N[C@@H](COC[C@@H]2COCCN2)C(=O)N(C)[C@@H](CC(C)C)C(=O)N[C@@H]([C@@H](C)O)C1=O` [AP244] ([Sar][NMeL]S(X8)[NMeL]T[NBuGly][NMeF][NMeL]V[NMeL]D-Piperidide; lactam N-11) stands 0.46 ×10⁻⁶ cm/s.
The molecule `CCCCN1CC(=O)N(C)[C@@H](Cc2ccccc2)C(=O)N(C)[C@@H](CC(C)C)C(=O)N[C@@H](COC[C@@H]2COCCN2)C(=O)N(C)[C@@H](CC(C)C)C(=O)N[C@H](C(=O)N2CCCCC2)CC(=O)N(C)CC(=O)N(C)[C@@H](CC(C)C)C(=O)NC([C@@H](C)CC)C(=O)N(C)[C@@H](CC(C)C)C(=O)N[C@@H]([C@@H](C)O)C1=O` (stereo partly drawn) [AP245] ([Sar][NMeL][ξIle][NMeL]T[NBuGly][NMeF][NMeL]S(X8)[NMeL]D-Piperidide; lactam N-11) showed a Papp of 0.1 ×10⁻⁶ cm/s.
Under `CC[C@H]1C(=O)N(C)[C@@H](Cc2ccccc2)C(=O)N[C@@H](CC(C)C)C(=O)N(C)[C@@H](CC(C)C)C(=O)N(C)[C@@H](CC(C)C)C(=O)N[C@@H](COC[C@@H]2COCCN2)C(=O)N(C)CC(=O)N(C)[C@@H](CC(C)C)C(=O)N[C@H](C(=O)N2CCCCC2)CC(=O)N(C)[C@@H](C)C(=O)N[C@@H](CC(C)C)C(=O)N1C` [AP246] ([NMeA]L[NMeAbu][NMeF]L[NMeL][NMeL]S(X8)[Sar][NMeL]D-Piperidide; lactam N-11) stands 0.23 ×10⁻⁶ cm/s; under `CCCCN1CC(=O)N(C)[C@@H](Cc2ccccc2)C(=O)N(C)[C@@H](CC(C)C)C(=O)N[C@@H](CC(C)C)C(=O)N(C)[C@@H](CC(C)C)C(=O)N[C@H](C(=O)N2CCCCC2)CC(=O)N(C)CC(=O)N(C)[C@@H](CC)C(=O)N[C@@H](C(C)C)C(=O)N(C)[C@@H](CC)C(=O)N[C@@H](COC[C@@H]2COCCN2)C1=O` [AP247] ([Sar][NMeAbu]V[NMeAbu]S(X8)[NBuGly][NMeF][NMeL]L[NMeL]D-Piperidide; lactam N-11), 0.69 ×10⁻⁶ cm/s.
Under `CCCCN1CC(=O)N(C)[C@@H](CC(C)C)C(=O)N[C@@H](COC(C)(C)C)C(=O)N(C)[C@@H](Cc2ccccc2)C(=O)N(C)[C@@H](CC(C)C)C(=O)N[C@H](C(=O)N2CCCCC2)CC(=O)N[C@H](C(C)C)C(=O)N(C)[C@@H](C(C)C)C(=O)N[C@@H](Cc2ccc(C(=O)N(C)O)cc2)C(=O)N(C)[C@@H](CC(C)C)C(=O)N[C@@H]([C@@H](C)O)C1=O` [AP248] ([dV][NMeV][Phe(4-COOH)](N(OH)Me)[NMeL]T[NBuGly][NMeL]S(tBu)[NMeF][NMeL]D-Piperidide; lactam N-11) stands 0.24 ×10⁻⁶ cm/s.
Under `CCCCN1CC(=O)N(C)[C@@H](CC(C)C)C(=O)N[C@@H](Cc2ccc(C(=O)N(C)O)cc2)C(=O)N(C)[C@@H](CC(C)C)C(=O)N(C)[C@@H](CC(C)C)C(=O)N[C@H](C(=O)N2CCCCC2)CC(=O)N[C@H](CC(C)C)C(=O)N(C)[C@@H](Cc2ccccc2)C(=O)N[C@@H](C(C)C)C(=O)N(C)C(CC(C)C)C(=O)N[C@@H]([C@@H](C)O)C1=O` (stereo partly drawn) [AP249] ([dL][NMeF]V[ξNMeL]T[NBuGly][NMeL][Phe(4-COOH)](N(OH)Me)[NMeL][NMeL]D-Piperidide; lactam N-11) stands 0.04 ×10⁻⁶ cm/s.
